ChEMBL document CHEMBL1131955, “Solid-phase synthesis of novel inhibitors of farnesyl transferase” (Bioorg Med Chem Lett, 1999)

Legend:
[1] = target: Protein farnesyltransferase (Rattus norvegicus, UniProt Q02293+Q04631); experiment: In vitro inhibition of rat brain cytosol farnesyl transferase
[2] = target: geranylgeranyltransferase type-I (Rattus norvegicus, UniProt P53610+Q04631); experiment: In vitro inhibition of rat brain cytosol Geranylgeranyl transferase type I

Structure (SMILES) | IC50 [1] [µM] | IC50 [2] [µM]
CC(C)=CCC/C(C)=C/CC/C(C)=C/COc1c(F)c(O)c([N+](=O)[O-])c(F)c1F | 6.3 | 12.5
C=C(C)C1CC=C(COc2c(F)c(O)c([N+](=O)[O-])c(F)c2F)CC1 (centres undefined) | 120 | 85
O=[N+]([O-])c1c(O)c(F)c(OCc2ccc(-c3ccccc3)cc2)c(F)c1F | 200 | > 200
O=[N+]([O-])c1c(O)c(F)c(OCc2ccccc2)c(F)c1F | > 200 | 58
CCCCCCCCCCCCOc1c(F)c(O)c([N+](=O)[O-])c(F)c1F | > 100 | > 100
O=[N+]([O-])c1c(O)c(F)c(OCc2ccc3ccccc3c2)c(F)c1F | 200 | > 200
C=CCOc1c(F)c(O)c([N+](=O)[O-])c(F)c1F | > 200 | > 200
